Assay results from US4725683A, “Fluorophenoxyphenoxypropionates and derivatives thereof” (The Dow Chemical Company, priority 1985, dated 1988).

Tests used:
cocklebur = test: Postemergent activity; assay type: in vivo; conditions: 125 ppm
Experimental: (§1) Representative compositions of the present invention were evaluated for the postemergence control of species of plants listed in Table A. In these evaluations, pots of the plant species listed in Table A, grown to a height of about 10 cms, were used. Aqueous spray compositions, containing various amounts of 2-[4-(2-fluoro-4-trifluoromethylphenoxy)-phenoxy]propionic acid methy ester, i.e., 125 ppm, 62.5 ppm, 31.25 ppm, 15.6 ppm, 7.8 ppm and 3.9 ppm, respectively, were applied to separate pots. The spray compositions were made by mixing the active ingredient in acetone to 1/2 the final volume, i.e., twice the final concentration. An equal amount of water was added to the active ingredient/acetone mixture wherein the water contained 0.1 percent by weight of TWEEN® 200 surfactant. The application to the plants was made to the point of run-off and was carried out with conventional spraying equipment. Other pots were sprayed with similar compositions containing no toxicant to serve as controls. Thereafter, the pots were maintained under conditions conducive for plant growth. Two weeks after treatment, the pots were examined for plant growth and evaluated on a scale of 0 to 100 where 0 represents no effect and 100 represents complete kill. The results of the examination of the treated pots are set forth below in Table A.

morning glory = test: Postemergent activity; assay type: in vivo; conditions: 125 ppm
Experimental: as §1

For `COC(=O)C(C)Oc1ccc(Oc2ccc(C(F)(F)F)cc2F)cc1` (centres unmarked) [2-[4-(2-fluoro-4-trifluoromethylphenoxy)phenoxy]propionic acid methyl ester], the phytotoxic effect (cocklebur) was “inactive” and the phytotoxic effect (morning glory) was “inactive”.
